Laboratory results from ChEMBL document CHEMBL2440076, “New triarylpyrazoles as broad-spectrum anticancer agents: design, synthesis, and biological evaluation” (Eur J Med Chem, 2013).

Tests used:
U-251 = experiment: Growth inhibition of human U251 cells assessed as cell growth at 10 uM after 48 hrs by sulforhodamine B assay; assay type: functional; details: U-251, 48 h, read-out: Activity
TK-10 = experiment: Growth inhibition of human TK10 cells assessed as cell growth at 10 uM after 48 hrs by sulforhodamine B assay; assay type: functional; details: TK-10, 48 h, read-out: Activity
MDA-MB-435 = experiment: Growth inhibition of human MDA-MB-435 cells after 48 hrs by sulforhodamine B assay; assay type: functional, cell-based; details: MDA-MB-435, 48 h
RXF 393 = experiment: Growth inhibition of human RXF393 cells after 48 hrs by sulforhodamine B assay; assay type: functional; details: RXF 393, 48 h
KM12 = experiment: Growth inhibition of human KM12 cells assessed as cell growth at 10 uM after 48 hrs by sulforhodamine B assay; assay type: functional; details: KM12, 48 h, read-out: Activity
A549 = experiment: Growth inhibition of human A549/ATCC cells assessed as cell growth at 10 uM after 48 hrs by sulforhodamine B assay; assay type: functional; details: A549, 48 h, read-out: Activity
SN12C = experiment: Growth inhibition of human SN12C cells assessed as cell growth at 10 uM after 48 hrs by sulforhodamine B assay; assay type: functional; details: read-out: Activity
BT-549 [1] = experiment: Growth inhibition of human BT549 cells after 48 hrs by sulforhodamine B assay; assay type: functional; details: BT-549, 48 h
BT-549 [2] = experiment: Growth inhibition of human BT549 cells assessed as cell growth at 10 uM after 48 hrs by sulforhodamine B assay; assay type: functional; details: BT-549, 48 h, read-out: Activity
K562 = experiment: Growth inhibition of human K562 cells after 48 hrs by sulforhodamine B assay; assay type: functional; details: K562, 48 h
OVCAR-4 = experiment: Growth inhibition of human OVCAR4 cells assessed as cell growth at 10 uM after 48 hrs by sulforhodamine B assay; assay type: functional; details: OVCAR-4, 48 h, read-out: Activity
A498 = experiment: Growth inhibition of human A498 cells assessed as cell growth at 10 uM after 48 hrs by sulforhodamine B assay; assay type: functional; details: A498, 48 h, read-out: Activity
SK-OV-3 = experiment: Growth inhibition of human SKOV3 cells assessed as cell growth at 10 uM after 48 hrs by sulforhodamine B assay; assay type: functional; details: SK-OV-3, 48 h, read-out: Activity
MOLT-4 = experiment: Growth inhibition of human MOLT4 cells assessed as cell growth at 10 uM after 48 hrs by sulforhodamine B assay; assay type: functional; details: MOLT-4, 48 h, read-out: Activity
T47D [3] = experiment: Growth inhibition of human T47D cells after 48 hrs by sulforhodamine B assay; assay type: functional
NCI-H23 = experiment: Growth inhibition of human NCI-H23 cells after 48 hrs by sulforhodamine B assay; assay type: functional; details: NCI-H23, 48 h
SK-MEL-2 = experiment: Growth inhibition of human SK-MEL-2 cells after 48 hrs by sulforhodamine B assay; assay type: functional; details: SK-MEL-2, 48 h
RPMI-8226 = experiment: Growth inhibition of human RPMI8226 cells assessed as cell growth at 10 uM after 48 hrs by sulforhodamine B assay; assay type: functional; details: RPMI-8226, 48 h, read-out: Activity
[4] = Growth inhibition of human Hs 578T cells assessed as cell growth at 10 uM after 48 hrs by sulforhodamine B assay; assay type: functional; details: read-out: Activity
HT-29 = experiment: Growth inhibition of human HT-29 cells after 48 hrs by sulforhodamine B assay; assay type: functional; details: HT-29, 48 h
SK-MEL-5 = experiment: Growth inhibition of human SK-MEL-5 cells assessed as cell growth at 10 uM after 48 hrs by sulforhodamine B assay; assay type: functional; details: SK-MEL-5, 48 h, read-out: Activity
NCI-H460 = experiment: Growth inhibition of human NCI-H460 cells assessed as cell growth at 10 uM after 48 hrs by sulforhodamine B assay; assay type: functional; details: NCI-H460, 48 h, read-out: Activity
NCI-H522 = experiment: Growth inhibition of human NCI-H522 cells assessed as cell growth at 10 uM after 48 hrs by sulforhodamine B assay; assay type: functional; details: NCI-H522, 48 h, read-out: Activity
[5] = Growth inhibition of human HCC2998 cells assessed as cell growth at 10 uM after 48 hrs by sulforhodamine B assay; assay type: functional; details: HCC 2998, 48 h, read-out: Activity
PC-3 = experiment: Growth inhibition of human PC3 cells assessed as cell growth at 10 uM after 48 hrs by sulforhodamine B assay; assay type: functional; details: PC-3, 48 h, read-out: Activity
MDA-MB-468 = experiment: Growth inhibition of human MDA-MB-468 cells assessed as cell growth at 10 uM after 48 hrs by sulforhodamine B assay; assay type: functional; details: MDA-MB-468, 48 h, read-out: Activity
COLO 205 = experiment: Growth inhibition of human COLO205 cells after 48 hrs by sulforhodamine B assay; assay type: functional; details: COLO 205, 48 h
T47D [6] = experiment: Growth inhibition of human T47D cells assessed as cell growth at 10 uM after 48 hrs by sulforhodamine B assay; assay type: functional; details: read-out: Activity
CAKI-1 = experiment: Growth inhibition of human CAKI-1 cells after 48 hrs by sulforhodamine B assay; assay type: functional; details: CAKI-1, 48 h
HOP-62 = experiment: Growth inhibition of human HOP62 cells assessed as cell growth at 10 uM after 48 hrs by sulforhodamine B assay; assay type: functional; details: HOP-62, 48 h, read-out: Activity
SNB-19 = experiment: Growth inhibition of human SNB19 cells after 48 hrs by sulforhodamine B assay; assay type: functional; details: SNB-19, 48 h
MDA-MB-231 = experiment: Growth inhibition of human MDA-MB-231 cells after 48 hrs by sulforhodamine B assay; assay type: functional; details: MDA-MB-231, 48 h
SK-MEL-28 = experiment: Growth inhibition of human SK-MEL-28 cells after 48 hrs by sulforhodamine B assay; assay type: functional; details: SK-MEL-28, 48 h
HCT-15 = experiment: Growth inhibition of human HCT15 cells assessed as cell growth at 10 uM after 48 hrs by sulforhodamine B assay; assay type: functional; details: HCT-15, 48 h, read-out: Activity
[7] = read-out: LC50 (the source's name)

COc1cc(-c2nn(-c3cccc(NC(=O)c4ccc(Cl)c(C(F)(F)F)c4)c3)cc2-c2ccncc2)ccc1Cl
growth at 10 µM (U-251): 32.5%
growth at 10 µM (TK-10): 69.5%
GI50 (MDA-MB-435): 664 nM
IC50 (MDA-MB-435): 660 nM
TGI (MDA-MB-435): 1740 nM
CC50 (MDA-MB-435; [7]): 24.7 µM
GI50 (RXF 393): 1760 nM
LC50 (concentration killing 50% of cells) (RXF 393): > 32.5 µM
TGI (RXF 393): 18.7 µM
growth at 10 µM (KM12): 28.8%
growth at 10 µM (A549): 23.3%
growth at 10 µM (SN12C): 57.3%
GI50 (BT-549 [1]): 7.54 µM
LC50 (50% lethal concentration) (BT-549 [1]): > 32.5 µM
TGI (BT-549 [1]): > 32.5 µM
growth at 10 µM (BT-549 [2]): 49.7%
GI50 (K562): 1610 nM
TGI (K562): > 32.5 µM
CC50 (K562; [7]): > 32.5 µM
growth at 10 µM (OVCAR-4): 66%
growth at 10 µM (A498): 11.8%
growth at 10 µM (SK-OV-3): 64.3%
growth at 10 µM (MOLT-4): 20.3%
GI50 (T47D [3]): 2050 nM
TGI (T47D [3]): > 32.5 µM
CC50 (T47D [3]; [7]): > 32.5 µM
GI50 (NCI-H23): 5.39 µM
LC50 (NCI-H23): > 32.5 µM
TGI (NCI-H23): > 32.5 µM
GI50 (SK-MEL-2): 1900 nM
LC50 (50% lethal concentration) (SK-MEL-2): > 32.5 µM
TGI (SK-MEL-2): 19.7 µM
growth at 10 µM (RPMI-8226): 25.4%
growth at 10 µM [4]: 34.7%
GI50 (HT-29): 3.38 µM
TGI (HT-29): > 32.5 µM
CC50 (HT-29; [7]): > 32.5 µM
growth at 10 µM (SK-MEL-5): 17.5%
growth at 10 µM (NCI-H460): 25.4%
growth at 10 µM (NCI-H522): 1.5%
growth at 10 µM [5]: -8.08%
growth at 10 µM (PC-3): 18.6%
growth at 10 µM (MDA-MB-468): 54.4%
GI50 (COLO 205): 6.14 µM
LC50 (concentration killing 50% of cells) (COLO 205): > 32.5 µM
TGI (COLO 205): 23.3 µM
growth at 10 µM (T47D [6]): 26.2%
GI50 (CAKI-1): 2300 nM
TGI (CAKI-1): > 32.5 µM
CC50 (CAKI-1; [7]): > 32.5 µM
growth at 10 µM (HOP-62): 53%
GI50 (SNB-19): 8.68 µM
LC50 (concentration killing 50% of cells) (SNB-19): > 32.5 µM
TGI (SNB-19): > 32.5 µM
GI50 (MDA-MB-231): 1200 nM
LC50 (MDA-MB-231): > 32.5 µM
TGI (MDA-MB-231): > 32.5 µM
GI50 (SK-MEL-28): 3.08 µM
LC50 (SK-MEL-28): > 32.5 µM
TGI (SK-MEL-28): > 32.5 µM
growth at 10 µM (HCT-15): 51.7%
